Each compound was assayed on THP-1 CD14 (assay: THP-1 CD14 Screening Assay). Settings: Homo sapiens, THP-1, 72 h, THP-1 cells treated with PMA and compound (5-point 10-fold dilution), human CD14 ELISA on media.
Assay type: cell-based
Protocol: THP-1 CD14 Screening Assay Protocol:
5×10^4 THP-1 cells were plated per well in a tissue culture-treated 96-well plate. At the time of plating, cells were treated with a final concentration of […] PMA and 0.04% DMSO vehicle, concominant with compounds in a 5-point 10-fold dilution per compound. Cells were treated with PMA and DMSO as a control for differentiation without compound treatment, and with only DMSO as a control for no differentiation and no compound treatment. 500 nM IACS-71432 was added as a control compound across all assay plates.
After incubation at 37° C./5% CO2 for 72 hr, media was collected from the cells and the screening assay was performed using the commercially-available human CD14 SimpleStep ELISA kit from Abcam, according to the following protocol: • 1) ELISA kits were taken out to equilibrate to rt. • 2) Following the protocol listed in the kit, standards were prepared as 1:1 dilutions from 2 ng/ml. • 3) Following the protocol listed in the kit, antibody cocktail was prepared (the volume is contingent on the number of wells required). • 4) 50 μl of standards were added to the appropriate wells, thoroughly mizing the standards before adding to each well. • 5) 25 μl of Sample Diluent (from kit) was added to all sample wells. • 6) Cell plates were centrifuged for 5 min at 300 rcf, with slow acceleration and slow deceleration. • 7) 25 μl of media from cell plates was transferred to assay plates containing standards. • 8) 50 μl of antibody cocktail was added to all of the wells, standards and samples. • 9) Assay plates were sealed tightly and incubated on the plate shaker at 400 rpm for 1 hr at rt. • 10) Wash buffer was prepared following the protocol listed in the kit. • 11) After the hour incubation, assay plates were washed 5 times using 200 μl wash buffer per well per wash. • 12) 100 μl of TMB substrate was added to each well in the dark and incubated on the shaker for 3-4.min, at which point color development was monitored to ensure a robust signal for detection but to avoid oversaturation of signal, for no longer than 10 min. • 13) The absorbance at 607 nm was read on a Perkin Elmer Envision plate reader. • 14) Data was processed using Microsoft Excel and GraphPad Prism.

Row | SMILES | IC50 [nM]
1 | Cc1cc(-c2ccc(S(=O)(=O)NCc3ccncc3)cc2)ccn1 [Example 40, 4-(2-methylpyridin-4-yl)-N-(pyridin-4-ylmethyl)-benzenesulfonamide] | < 5
2 | Cc1ccnc(-c2ccc(S(=O)(=O)NCc3ccncc3)cc2)c1 [Example 41, 4-(4-methylpyridin-2-yl)-N-(pyridin-4-ylmethyl)-benzenesulfonamide] | < 5
3 | Cc1ccc(-c2ccc(S(=O)(=O)NCc3ccncc3)cc2)nc1 [Example 42, 4-(5-methylpyridin-2-yl)-N-(pyridin-4-ylmethyl)-benzenesulfonamide] | < 5
4 | O=S(=O)(NCc1ccncc1)c1ccc(-c2ncccc2Cl)cc1 [Example 43, 4-(3-chloropyridin-2-yl)-N-(pyridin-4-ylmethyl)-benzenesulfonamide] | < 5
5 | Cn1ncc2cc(-c3ccc(S(=O)(=O)NCc4ccncc4)cc3)ccc21 [Example 44, 4-(1-methyl-1H-indazol-5-yl)-N-(pyridin-4-ylmethyl)-benzenesulfonamide] | < 5
6 | O=S(=O)(NCc1ccncc1)c1ccc(-c2ccc3ncoc3c2)cc1 [Example 45, 4-(benzo[d]oxazol-6-yl)-N-(pyridin-4-ylmethyl)-benzenesulfonamide] | < 5
7 | O=S(=O)(NCc1ccncc1)c1ccc(-c2ccc3ncsc3c2)cc1 [Example 46, 4-(benzo[d]thiazol-6-yl)-N-(pyridin-4-ylmethyl)-benzenesulfonamide] | < 5
8 | Cc1nc2cc(-c3ccc(S(=O)(=O)NCc4ccncc4)cc3)ccc2o1 [Example 47, 4-(2-methyl-benzo[d]oxazol-5-yl)-N-(pyridin-4-ylmethyl)-benzenesulfonamide] | < 5
9 | O=S(=O)(NCc1ccncc1)c1ccc(-c2ccc3ocnc3c2)cc1 [Example 48, 4-(1,3-benzoxazol-5-yl)-N-[(pyridin-4-yl)methyl]benzene-1-sulfonamide] | < 5
10 | O=c1[nH]ccc2cc(-c3ccc(S(=O)(=O)NCc4ccncc4)cc3)ccc12 [Example 50, 4-(1-oxo-1,2-dihydro-isoquinolin-6-yl)-N-(pyridin-4-ylmethyl)-benzenesulfonamide] | 100 to 500
11 | O=S(=O)(NCc1ccncc1)c1ccc(-c2ccc3ccoc3c2)cc1 [Example 51, 4-(benzofuran-6-yl)-N-(pyridin-4-ylmethyl)-benzenesulfonamide] | < 5
12 | O=S(=O)(NCc1ccncc1)c1ccc(-c2ccc3cccnc3c2)cc1 [Example 52, N-(pyridin-4-ylmethyl)-4-(quinolin-7-yl)benzenesulfonamide] | < 5
13 | O=S(=O)(NCc1ccncc1)c1ccc(-c2ccc3c(c2)OCO3)cc1 [Example 53, 4-(benzo[d][1,3]dioxol-5-yl)-N-(pyridin-4-ylmethyl)-benzenesulfonamide] | < 5
14 | O=S(=O)(NCc1ccncc1)c1ccc(-c2ccc3ncnc(O)c3c2)cc1 [Example 54, 4-(4-hydroxyquinazolin-6-yl)-N-(pyridin-4-ylmethyl)-benzenesulfonamide] | 100 to 500
15 | O=S(=O)(NCc1ccncc1)c1ccc(-c2ccc3c(c2)OCCO3)cc1 [Example 55, 4-(2,3-dihydrobenzo[b]-[1,4]dioxin-6-yl)-N-(pyridin-4-ylmethyl)-benzenesulfonamide] | < 5
16 | O=C1NCCc2ccc(-c3ccc(S(=O)(=O)NCc4ccncc4)cc3)cc21 [Example 56, 4-(1-oxo-1,2,3,4-tetrahydroisoquinolin-7-yl)-N-(pyridin-4-ylmethyl)-benzenesulfonamide] | 5 to 100
17 | O=C1NCc2ccc(-c3ccc(S(=O)(=O)NCc4ccncc4)cc3)cc21 [Example 57, 4-(3-oxoisoindolin-5-yl)-N-(pyridin-4-ylmethyl)-benzenesulfonamide] | 5 to 100
18 | O=S(=O)(NCc1ccncc1)c1ccc(-c2ccc3cc[nH]c3c2)cc1 [Example 58, 4-(1H-indol-6-yl)-N-(pyridin-4-ylmethyl)-benzenesulfonamide] | < 5
19 | Cc1n[nH]c2cc(-c3ccc(S(=O)(=O)NCc4ccncc4)cc3)ccc12 [Example 59, 4-(3-methyl-1H-indazol-6-yl)-N-(pyridin-4-ylmethyl)-benzenesulfonamide] | < 5
20 | O=c1[nH]c2cc(-c3ccc(S(=O)(=O)NCc4ccncc4)cc3)ccc2o1 [Example 61, 4-(2-oxo-2,3-dihydro-benzo[d]oxazol-5-yl)-N-(pyridin-4-ylmethyl)-benzenesulfonamide] | 5 to 100
21 | O=c1[nH]c2ccc(-c3ccc(S(=O)(=O)NCc4ccncc4)cc3)cc2o1 [Example 62, 4-(2-oxo-2,3-dihydro-benzo[d]oxazol-6-yl)-N-(pyridin-4-ylmethyl)-benzenesulfonamide] | 100 to 500
22 | Cn1ncc2c(NS(=O)(=O)c3ccc(C4CCCCC4)cc3)cccc21 [Example 63, 4-cyclohexyl-N-(1-methyl-1H-indazol-4-yl)benzenesulfonamide] | < 5

— patent US20240043384A1, “INHIBITORS OF PU.1 FOR THE TREATMENT OF DISEASE” (Board of Regents, The University of Texas System, priority 2021, published 2024)
